The results in this text go back to patent US20120237552A1, “Peptoid Agonists of Nerve Growth Factor and Their Use as Medicaments” (priority 2009, published 2012).

The nature of data set [1]: Serum transaminases levels in treated EAE mice. The conditions noted are these: daily intraperitoneal treatment, N35-4-17C at the higher concentrations. Type of data set: in vivo. On the procedure: (§1) The agonist molecules selected for the animal studies, N35-4-8C, N6-4-17C and N35-4-17C, were prepared in water with 5% DMSO. Animals were treated with the agonist molecule (25, 50 and 100 mg/kg) or placebo (water+5% DMSO) through daily intraperitoneal injection starting after immunization. At the end of the study, mice were anesthetized and perfused intracardially with 4% of paraformaldehyde in 0.1M phosphate buffer (pH 7.6). Brains, spinal cords and spleens were dissected and either fixed or frozen until use. Serum was obtained from all animals included in the study, and transaminases levels were measured.

In data set [2] the test system is RN22 cells. The data set can be described thus: RN22 cell survival under CuSO4 stress (MTT). The format is cell-based, rat. The conditions noted are these: CuSO4 150 μM, 24 h, peptoids 1 ng/ml-10 μg/ml; compared with NGF 100 ng/ml. The protocol:
The library was also tested to assess their capacity to promote cell survival of myelin producing cells. To delineate p75 signalling independent of TrkA, we used a rat schwannoma cell line (RN22) expressing p75, but not TrkA, (Gentry et al., 2000).
The rat schawnnoma cell line RN22 was cultured in 5% CO2 at 37° C. in Dulbecco's modified Eagle's medium (DMEM) with 10% fetal bovine serum (FBS) and penicillin/streptomycin.
RN22 cells were plated at 20,000 cells/well on a 24-well plate in DMEM alone and after allowing the cells to adhere for 3 days, cupper sulphate (CuSO4) (150 μM) was added with or without NGF (100 ng/ml) or the peptoids N35-4-8C, N6-4-17C and N35-4-17C at different concentrations (1 ng/ml-10 μg/ml) to generate stress and cell death. After 24 h cell viability was studied by determining the amount of yellow MTT (Sigma) that was reduced to insoluble purple formazan. After removing the medium, the water-insoluble formazan was solubilised with DMSO (Sigma), and the dissolved material was measured spectrophotometrically at a wavelength of 570 nm, subtracting the background at 650 nm (Frade, 2005).

Data set [3] has as its system PC12 cells. In words: PC12 cell differentiation (neurite outgrowth). The format is cell-based, rat. Particulars: 3 days, peptoids 2 ng/ml to 50 μg/ml, reduced serum (0.5% FBS and 1% HS); compared with NGF 100 ng/ml. On the procedure: PC 12 cell differentiation was measured by plating cells onto collagen-coated 24-wells plates. NGF (100 ng/ml) or the small chemicals at different concentrations were added and the percentage of cells with neurite processes greater than two cell bodies in length were counted after relevant treatment. For each experiment at least 300 cells were randomly measured (Burstein and Greene, 1978).
PC12 cells were maintained at 37° C. in DMEM supplemented with 2.5% FBS, 15% of Horse serum (HS) and penicillin/streptomycin in a humidified 5% CO2 incubator. The cells were grown on 60- and 100-mm tissue culture dishes (Becton Dickinson).
PC 12 cells were cultured for 3 days in the presence of the peptoids (from 2 ng/ml to 50 μg/ml) under reduced serum conditions (0.5% FBS and 1% HS).

Data set [4] deals with C57BL/6 EAE mice. In words: Experimental autoimmune encephalomyelitis (EAE) clinical score. The format is in vivo. The conditions noted are these: daily intraperitoneal. On the procedure: Trials were approved by the Parc Cientific de Barcelona Committee on Animal Care. Female C57BL/6 mice from Harlan (8-12 weeks old) were immunized subcutaneously in both hind pads with 300 μg of myelin oligodendrocyte glycoprotein (MOG) peptide 35-55 (Spikem, Firenze) emulsified with 50 μg of Mycobacterium tuberculosis (H37Ra strain; Difco, Detroit, Mich.) in incomplete Freund's adjuvant (IFA) as previously described (Adams et al. 2007). Mice were intraperitoneally injected with Pertussis toxin (Sigma)(500 ng) at the time of immunization and 2 days later. Animals were weighted and inspected for clinical signs of disease on a daily basis by a blinded observer. Disease severity of EAE was assessed according to the following scale: 0=normal; 0.5=mild limp tail; 1=limp tail; 2=mild parapesis of the hind limbs, unsteady gait; 3=moderate parapesis, voluntary movements still possible; 4=paraplegia or tetraparesis; 5=moribund state. Data shown for the clinical studies are representative of two independent experiments performed with the indicated number of animals (Moreno et al., 2006).
as §1
In order to evaluate the effects of the NGF-like peptoids “in vivo”, we studied the effect of the NGF-mimetic peptoids in the animal model of MS. C57BL/6 mice immunized with MOG35-55 peptide were treated daily with N35-4-8C, N6-4-17C and N35-4-17C intraperitoneally from day 0 to day 25 at a different concentrations of the compound. N35-4-8C was tested at 3 different concentrations selected in base to previous experiments using agonist molecules in animal models: 25 mg/kg, 50 mg/kg and 100 mg/kg. […] N35-4-17C was also tested at the same concentrations. […] Moreover, the treatment had higher clinical scores with a clear worsening in the progression of the disease (FIG. 4C).

Data set [5] relates to IκBα. In words: IκBα phosphorylation / NF-κB pathway activation in PC12 and RN22 cells (western blot). The format is cell-based, rat. Particulars: 100 ng/ml. The protocol: (§2) Western Blot Analysis. Subconfluent cells were grown overnight in medium containing 2% FBS and 1% HS and stimulated with 100 ng/ml NGF or the NGF-like small chemicals for the indicated time points. Cells were then washed with cold phosphate-buffered saline (PBS) and briefly sonicated in SDS sample buffer (containing β-mercaptoethanol and 2 mM PMSF). Lysates (200 μg of total proteins) were separated on SDS-PAGE, and transferred to nitrocellulose (Whatman, Dassel, Germany). After blocking with 5% nonfat milk in TBST buffer (10 mM Tris pH 7.5; 150 mM NaCl/0.2% Tween 20), blots were probed overnight at 4° C. with anti-p-TrkA (Tyr 490) antibody (1:1000), anti TrkA antibody (1:1000), anti-p-IκBα (Ser 32/36)(5A5) mouse antibody (1/1000), anti IκBα (L35A5) mouse antibody (1:1000), anti-p-SAPK/JNK (Thr183/Tyr185) antibody (1:1000) or anti-SAPK/JNK antibody (1/1000)(all of them from Cell Signaling), followed by incubation with HRP-conjugated IgG (Jackson ImmunoResearch) for 1 h at room temperature (RT). Detection of phosphorylated species was performed by using the enhanced chemiluminescence (ECL) system (GE Healthcare Bio-Sciences, Piscataway, N.J.).
To investigate whether our NGF-like small chemicals activate p75 we analyzed the activation of the NF-κB pathway (Bonizzi G, Karin M. 2004) and the SAPK/JNK pathway (cell death) in PC12 and RN22 cell lines. […]
Background: Immunoblotting shows a protein as a band on a membrane.

The target in data set [6] is T1, TrkA (Rattus norvegicus, UniProt P35739).
T1 construct: we analyzed their capacity to induce TrkA phosphorylation in PC12 cells; endogenous in cells; host or cells: PC12 cells
T1 sequence (P35739 33-799): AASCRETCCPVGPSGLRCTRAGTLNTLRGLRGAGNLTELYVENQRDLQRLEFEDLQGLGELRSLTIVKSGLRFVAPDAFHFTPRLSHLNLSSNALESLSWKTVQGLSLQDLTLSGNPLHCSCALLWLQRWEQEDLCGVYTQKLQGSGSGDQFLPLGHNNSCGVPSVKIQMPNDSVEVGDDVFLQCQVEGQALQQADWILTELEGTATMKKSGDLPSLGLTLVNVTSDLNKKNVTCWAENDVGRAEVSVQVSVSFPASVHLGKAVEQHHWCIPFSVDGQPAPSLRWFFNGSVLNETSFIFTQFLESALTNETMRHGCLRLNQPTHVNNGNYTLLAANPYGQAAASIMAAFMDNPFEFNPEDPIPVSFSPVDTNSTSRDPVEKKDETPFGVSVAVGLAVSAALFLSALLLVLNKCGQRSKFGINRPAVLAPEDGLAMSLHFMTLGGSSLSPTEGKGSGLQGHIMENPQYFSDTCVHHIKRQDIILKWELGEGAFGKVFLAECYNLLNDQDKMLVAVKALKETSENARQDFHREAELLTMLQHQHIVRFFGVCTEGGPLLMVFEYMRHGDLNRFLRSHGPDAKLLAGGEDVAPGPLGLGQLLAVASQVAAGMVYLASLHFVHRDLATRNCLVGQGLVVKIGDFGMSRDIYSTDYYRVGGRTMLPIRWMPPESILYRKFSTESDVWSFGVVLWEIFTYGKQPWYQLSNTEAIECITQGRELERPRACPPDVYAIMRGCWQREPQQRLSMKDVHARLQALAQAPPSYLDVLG
The data set can be described thus: TrkA phosphorylation in PC12 cells (western blot). The format is cell-based. Particulars: 100 ng/ml, time course. On the procedure:
Activation of TrkA is the first event in the signalling cascade leading to differentiation and survival of NGF responsive neurons and PC12 cells (Greene and Tischler, 1976; Chao, 2003; Huang and Reichardt, 2003). To evaluate whether the neurotrophic activity of NGF-like peptoids was mediated by the interaction with TrkA receptor, we analyzed their capacity to induce TrkA phosphorylation in PC12 cells. The activity of peptoids was tested in the range of concentrations that were effective on PC12 cells differentiation.
Western Blot Analysis. Subconfluent cells were grown overnight in medium containing 2% FBS and 1% HS and stimulated with 100 ng/ml NGF or the NGF-like small chemicals for the indicated time points. Cells were then washed with cold phosphate-buffered saline (PBS) and briefly sonicated in SDS sample buffer (containing β-mercaptoethanol and 2 mM PMSF). Lysates (200 μg of total proteins) were separated on SDS-PAGE, and transferred to nitrocellulose (Whatman, Dassel, Germany). […]

Data set [7] relates to SAPK/JNK. In words: SAPK/JNK phosphorylation in RN22 cells (western blot). The conditions noted are these: 100 ng/ml. The format is cell-based, rat. The protocol: as §2
In several neuronal systems, JNK activation has been causally linked with the induction of programmed cell death (Bhakar et al., 2003). […]

“Also recorded” adds a separate entry of the source.

In the case of `CC(C)CCN(CC(=O)N(CCc1ccc(S(N)(=O)=O)cc1)CC(N)=O)C(=O)CNCCN1CCCC1` [N6-4-17C, [N-(2-(1-Pyrrolidinyl)ethyl)glycyl]-[N-(3-methylbutyl)glycyl]-N-[2-(4′-sulfamoylphenyl)ethyl]glycinamide], in data set [1], the “transaminases levels in serum” value is listed as “elevated transaminases levels”. In addition, the “survival of RN22 cells (cell viability, MTT)” value in data set [2] is reported as “promote survival of RN22 cells”. Further, the “differentiation of PC12 cells” value in data set [3] is “induce the differentiation of PC12 cells at different concentrations to an extent substantially comparable with that induce by NGF”. Also, in data set [4] (any of the concentrations tested (25, 50, 100 mg/kg), 26 days observation), the EAE clinical severity entry is “not effective in reducing the clinical severity of EAE; also recorded: no effects in EAE”.

`CC(C)CCN(CC(=O)N(CCc1ccc(S(N)(=O)=O)cc1)CC(N)=O)C(=O)CNCCc1ccccc1F` [N35-4-17C, [N-(2-(2′-Fluorophenyl)ethyl)glycyl]-[N-(3-methylbutyl)glycyl]-N-[2-(4′-sulfamoylphenyl)ethyl]glycinamide]: the “transaminases levels in serum” value in data set [1] was “elevated transaminase levels”. Moreover, in data set [2], the “survival of RN22 cells (cell viability, MTT)” value is recorded as “promote survival of RN22 cells”. The “differentiation of PC12 cells” value in data set [3] is given as “induce the differentiation of PC12 cells at different concentrations to an extent substantially comparable with that induce by NGF”. In addition, in data set [4] (25 mg/kg, day 0 to day 25), the EAE clinical severity result is reported as “prevents significantly the development of clinical symptoms in EAE”. Also, the EAE clinical symptoms result in data set [4] (higher concentrations (50 and 100 mg/kg)) is given as “toxic effect worsening the development of the clinical symptoms”.

Turning to “NGF: homodimeric protein from the neurotrophin family; used as positive control at 100 ng/ml”, the “time after addition at which p-IκBα levels were increased” value in data set [5] was at most 5 min. Moreover, the “time of maximal TrkA phosphorylation” value in data set [6] amounted to 30 min. In addition, the “activation of the JNK pathway (phosphorylation of SAPK/JNK)” value in data set [7] is recorded as “obvious”.
